Test results taken from patent US20130084335A1, “IVABRADINE-CONTAINING PHARMACEUTICAL COMPOSITION” (ratiopharm GmbH, priority 2010, published 2013).

Legend:
[1] = Particle size by laser diffractometry; type: physicochemical
Protocol: The term “particle size” according to the present invention relates to the maximum diameter of the equivalent product assuming spherical opaque particles showing the same light scattering pattern and the same diffraction as the active substance particles. According to the invention the particle size is determined by means of laser light diffraction. The determination of the size distribution results from the analysis of the diffraction pattern that is obtained if particles are exposed to a monochromatic light beam. The particles refract the light with small particles refracting the light in a greater angle than large particles. The refracted light is measured by a number of photo detectors arranged in different angles. On the other hand, the light spectra of the […] have to be recorded by light-sensitive detectors in greater angles over the laser beam. Large particles result in greater intensity maxima with small angles, small particles to weaker intensity maxima with greater angles. Thus, in the laser light diffraction the pattern resulting from the interaction of the light with the particles is used for the determination of the particle size.
According to the invention the particle size is determined by means of laser diffractometry. For that, a Mastersizer 2000 by Malvern Instruments having the corresponding sample dispersing unit Hydro S is used. The wet measurement (2500 rpm, ultrasound 10-20 min., shading 5 to 20%) takes place in a dispersion of sunflower oil with the particle spacing in the dispersion being about 3-5 times greater than the particle diameter.
Moreover, the Mie theory defines the secondary scattering caused by the refraction of the light on small particles, as in the international rules of the laser diffraction measurement. (ISO 13320)
The determination of the particle size for particles D50 smaller than 5.0 μm is carried out according to the Mie method and for particles D50 greater than 5.0 μm according to the Fraunhofer method.

[2] = Stability at different temperatures and humidities in open or closed containers (polymorphic form); type: physicochemical; details: for Stability, summary in words: various conditions, phase transition in particular in open containers
Protocol: XRD samples were analysed on a Bruker-AXS D8 Advance powder X-Ray diffractometer. The measurement conditions were as follows: • Measurement in Bragg-Brentano-Geometry on vertical goniometer (reflection, theta/theta, 435 mm measurement circle diameter) • with sample rotation (30 rpm) on 9 position sample stage • Radiation: Cu Kα1 (1.5406 Å), Tube (Siemens FLCu2K), power 40 kV/40 mA • Detector: position sensitive detector VANTEC-1 • 3° capture angle (2theta), • Anti scatter slit 6.17 mm • Detector slit 10.39 mm • 4° soller slit, • primary beam stop (<2° 2theta) • Monochromator: None • Second β filter: Ni filter 0.1 mm (0.5%) • Start angle: 2° • End Angle: 55° • Measurement time: 11 min • Step: 0.016° 2Theta • Software: EVA (Bruker-AXS, Karlsruhe).
The stability of ivabradine adipate in comparison to ivabradine hydrochloride form I was investigated at different temperatures and humidities in open or closed containers for different storage times.

Row | Compound | Particle size D50 [1] [μm] | Particle size D90 [1] [μm] | Stability (crystal form after storage) ([2]; 25° C./60%, closed, 33 d) | Stability (crystal form after storage) ([2]; 25° C./60%, open, 33 d) | Stability (crystal form after storage) ([2]; 30° C./65%, closed, 33 d) | Stability (crystal form after storage) ([2]; 30° C./65%, open, 33 d) | Stability (crystal form after storage) ([2]; 40° C./75%, closed, 33 d) | Stability (crystal form after storage) ([2]; 40° C./75%, open, 33 d) | Stability, summary in words [2] | Stability (crystal form after storage) ([2]; 25° C./60%, closed, 57 d) | Stability (crystal form after storage) ([2]; 25° C./60%, open, 57 d) | Stability (crystal form after storage) ([2]; 30° C./65%, closed, 57 d) | Stability (crystal form after storage) ([2]; 30° C./65%, open, 57 d) | Stability (crystal form after storage) ([2]; 40° C./75%, closed, 57 d) | Stability (crystal form after storage) ([2]; 40° C./75%, open, 57 d)
1 | COc1cc2c(cc1OC)CC(=O)N(CCCN(C)C[C@H]1Cc3cc(OC)c(OC)cc31)CC2.Cl [Ivabradine HCl form I] | 19.10 | 44.11 | unchanged | β + | unchanged | β | unchanged | β | undergoes phase transition into ivabradine HCl, form beta, or form d |  |  |  |  |  | 
2 | COc1cc2c(cc1OC)CC(=O)N(CCCN(C)C[C@H]1Cc3cc(OC)c(OC)cc31)CC2.O=C(O)CCCCC(=O)O [Ivabradine adipate] | 18.35 | 52.71 |  |  |  |  |  |  | stable at various conditions | unchanged | unchanged | unchanged | unchanged | unchanged | unchanged
